# Measurements: patent publication EP0611660A2, “Condensed 5-membered heterocycles, process for their preparation and medicines containing these compounds” (Dr. Karl Thomae GmbH, priority 1993, dated 1994)
# Structures can show the parent of a compound that is named as a salt.
# Tested on: Thrombozytenaggregation
# Assay: Antithrombotic effect: collagen-induced platelet aggregation (Born and Cross) in platelet-rich plasma
# Assay type: cell-based
# Conditions: human platelet-rich plasma, 10 min preincubation at 37 °C, 50% change of optical density, read-out: Hemmung der Plättchenaggregation EC50
# Source text: 2. Antithrombotische Wirkung: Methodik Die Thrombozytenaggregation wird nach der Methode von Born und Cross (J. Physiol. 170, 397 (1964)) in plättchenreichem Plasma gesunder Versuchspersonen gemessen. Zur Gerinnungshemmung wird das Blut mit Natriumcitrat 3,14 % im Volumenverhältnis 1:10 versetzt. Collagen-induzierte Aggregation Der […] Substanz photometrisch gemessen und registriert. Aus dem Neigungswinkel der Dichtekurve wird auf die Aggregationsgeschwindigkeit geschlossen. Der Punkt der Kurve, bei dem die größte Lichtdurchlässigkeit vorliegt, dient zur Berechnung der "optical density". Die Collagen-Menge wird möglichst gering gewählt, aber doch so, daß sich eine irreversibel verlaufende Reaktionskurve ergibt. Verwendet wird das handelsübliche Collagen der Firma Hormonchemie, München. Vor der Collagen-Zugabe wird das Plasma jeweils 10 Minuten mit der Substanz bei 37 ° C inkubiert. Aus den erhaltenen Meßzahlen wird graphisch eine EC50 bestimmt, die sich auf eine 50%ige Änderung der "optical density" […].
row,SMILES,IC50
1,"N=C(N)c1ccc(-c2nc3c(=O)n(CCCCC(=O)O)c(=O)n4c3n2CCC4)cc1 [1(61), 2-(4-Amidino-phenyl)-9-(4-carboxy-butyl)-8,10-dioxo-5,6-dihydro-4H,9H-pyrimido[1,2,3-cd]purin-dih-ydrobromid]",110 nM
2,"Cn1c(=O)n(CCCCC(=O)O)c(=O)c2[nH]c(CCC3CCNCC3)nc21 [1(48), 1-(4-Carboxy-butyl)-3-methyl-8-[2-(4-piperidinyl)ethyl]-xanthin-dihydrochlorid]",250 nM
3,"COC(=O)CCCCn1c(=O)c2nc(-c3ccc(C(=N)N)cc3)n3c2n(c1=O)CCC3 [7(12), 2-(4-Amidino-phenyl)-9-(4-methoxycarbonyl-butyl)-8,10-dioxo-5,6-dihydro-4H,9H-pyrimido[1,2,3-cd]-purin]",660 nM
4,"Cn1c(-c2ccc(C3CCNCC3)cc2)nc2cc(C=CC(=O)O)ccc21 [1(67), 5-(2-Carboxy-ethenyl)-1-methyl-2-[4-(4-piperidinyl)-phenyl]-benzimidazol-dihydrobromid]",2300 nM
5,"O=C(O)CCCCn1c(=O)c2nc(CCC3CCNCC3)n3c2n(c1=O)CCC3 [1(63), 9-(4-Carboxy-butyl)-2-[2-(4-piperidinyl)-ethyl]-8,10-dioxo-5,6-dihydro-4H,9H-pyrimido[1,2,3-cd]purin-dihydrobromid]",4400 nM

# Results, then the molecule that gave them:
row,IC50,SMILES
1,> 10000 nM,"Cn1c(C(=O)NC2CCNCC2)nc2cc(C(=O)NCCC(=O)O)ccc21 [1(1), 5-[(2-Carboxy-ethyl)-aminocarbonyl]-1-methyl-2-[(4-piperidinyl)-aminocarbonyl]-benzimidazol-dihydro-bromid]"
2,30000 nM,"Cn1c(=O)n(CCCCC(=O)O)c(=O)c2[nH]c([C@H]3CC[C@H](CN)CC3)nc21 [1(64), 8-(trans-4-Aminomethyl-cyclohexyl)-1-(4-carboxy-butyl)-3-methyl-xanthin-dihydrochlorid]"
3,430 nM,"Cn1c(CCC2CCNCC2)nc2cc(C(=O)NCCC(=O)O)ccc21 [Beispiel 1, 5-[(2-Carboxy-ethyl)-aminocarbonyl]-1-methyl-2-[2-(4-piperidinyl)-ethyl]-benzimidazol-dihydrobromid]"
4,1250 nM,"Cn1c(CCC2CCNCC2)nc2cc(C(=O)CCCC(=O)O)ccc21 [1(15), 5-(4-Carboxy-1-oxo-butyl)-1-methyl-2-[2-(4-piperidinyl)-ethyl]-benzimidazol-dihydrobromid]"
5,150 nM,"Cn1c(CCC2CCNCC2)nc2c(=O)n(CCCCC(=O)O)c(=O)n(C)c21 [1(49), 1-(4-Carboxy-butyl)-3,9-dimethyl-8-[2-(4-piperidinyl)-ethyl]-xanthin-dihydrobromid]"
6,2000 nM,"COC(=O)CCNC(=O)c1ccc2c(c1)nc(CCC1CCNCC1)n2C [Beispiel 2, 5-[(2-Methoxycarbonyl-ethyl)-aminocarbonyl]-1-methyl-2-[2-(4-piperidinyl)-ethyl]-benzimidazol]"
7,6400 nM,"Cn1c(CCC2CCNCC2)nc2c1c(=O)n(CCCCC(=O)O)c(=O)n2C [6(12), 1-(4-Carboxy-butyl)-3,7-dimethyl-8-[2-(4-piperidinyl)-ethyl]-xanthin]"
